Where a name gives a salt, the structure may show the parent alone. Read-outs that look alike come from different tables or passages of the source.
Assays:
1N4R p-tau = system: T1, 1N4R p-tau; assay: p-tau aggregation modulator screen of 1280-compound library (ThS fluorescence net change over 16 h); type: biochemical; parameters: key to PTAI>3SD: *: PTAI>3SD; conditions: for PTAI>3SD: flag: p-tau aggregation inhibitor, ThS net change more than 3 SD from mean; for ThS net change: library screen, ThS fluorescence net change over 16 h with p-tau
T1 construct: made in house; host or cells: E. coli (PIMAX system)

p-tau = target: T2, p-tau (Homo sapiens, UniProt P10636); assay: p-tau aggregation assay, dose response (ThS fluorescence, inducer-free); type: biochemical; conditions: for EC50 / effect on p-tau aggregation (16-h net change of ThS fluorescence): 6 µM p-tau; for EC50: ThS fluorescence; for effect on p-tau aggregation (16-h net change of ThS fluorescence): 6.25-150 µM benzodiazepine
T2 construct: made in house; host or cells: E. coli (PIMAX system)
T2 sequence (P10636 1-412 isoform P10636-7): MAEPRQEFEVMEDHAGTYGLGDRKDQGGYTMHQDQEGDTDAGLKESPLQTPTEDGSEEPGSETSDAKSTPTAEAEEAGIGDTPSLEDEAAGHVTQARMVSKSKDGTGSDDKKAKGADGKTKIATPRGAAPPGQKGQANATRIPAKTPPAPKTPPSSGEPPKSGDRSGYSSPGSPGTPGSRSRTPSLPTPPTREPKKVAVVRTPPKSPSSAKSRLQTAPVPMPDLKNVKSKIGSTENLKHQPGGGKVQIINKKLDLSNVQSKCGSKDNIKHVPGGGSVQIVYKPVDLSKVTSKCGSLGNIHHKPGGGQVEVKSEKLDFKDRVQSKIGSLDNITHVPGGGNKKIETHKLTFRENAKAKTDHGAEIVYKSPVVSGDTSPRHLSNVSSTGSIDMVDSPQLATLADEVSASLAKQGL
Procedure: Aggregation of 6-µM p-tau under the influence of 30 µM of each of the library compounds or a DMSO vehicle control was monitored in 384-well plates every 10 min for ThS fluorescence changes over 16 h. To assess the quality of the high-throughput p-tau aggregation reactions, we used the T0 and T16hr ThS fluorescence units of no-compound control reactions to calculate the Z′-factor and coefficient of variation (CV), two commonly used criteria for robustness of high-throughput screens (HTS)[62]. A Z′-factor greater than 0.5 and CV smaller than 10% indicate robustness. […] To identify compounds with significant p-tau aggregation modulation, the net change of ThS fluorescence was calculated from all reactions (see Supplemental Table 1 for complete listing).
Aggregation of 6 µM of p-tau was done in the presence of the indicated concentrations of either compound. […] P-tau aggregation reactions with the C291S C322S (C/S) mutant p-tau were done in the presence of the indicated amounts of either compound. Shown are net changes of ThS over 16 h.
Given the tremendous socioeconomical burdens of AD, measures that prevent or delay the onset of the devastating neurodegeneration of AD will be highly impactful. If hyperphosphorylated tau-inflicted neuronal damages are an underpinning for AD and other tauopathies, enhancers of p-tau aggregation (PTAEs) may be risk factors for neurodegeneration. […] Prednicarbate is a synthetic corticosteroid for dermatological use, and carmofur (1-hexylcarbamoyl-5-fluorouracil) is an anti-neoplastic pyrimidine analogue. […] BZDs are among the most widely prescribed medication, in particular to the elderly, for depression and insomnia[70],[71]. We hypothesized that certain BZDs acted as a PTAE to potentiate p-tau aggregation and cytotoxicity. […] We therefore randomly picked nine prescription BZDs for p-tau aggregation assessment (Fig. 6; see Supplemental Fig. 5 for chemical structures). To 6-µM p-tau aggregation reactions, increasing doses of each of these BZDs were added.
Prednicarbate, a synthetic steroid, served as a PTAE control (yellow bars).
The aggregation assays over the course of this project have been done with multi-plate readers from different sources.
A common mix of 6 µM p-tau, 20 mM Tris pH 7.4, 1 mM DTT, and 20 µM ThS was assembled and dispensed to 384-well low-volume plates (10 µl per well) using BioTek EL406 Washer, followed by the addition of 150 nl of the Prestwick Library compounds (final concentration of 30 µM per well) or DMSO in a Beckman Coulter Biomek FX^P workstation. Each plate was covered with an Optical Adhesive Film and incubated at 37 °C for about 10 min. ThS fluorescence was measured every 10 min at 440/490 nm for 16 h by Biotek Synergy Neo Plate Reader. […] The real-time kinetics of ThS signals were collected using Gen5 software.

SH-SY5Y cells = assay: cells; conditions: for EC50: Homo sapiens, read-out: EC50, concentration of compound to reduce p-tau cytotoxicity by 50%, SH-SY5Y, 0.8 µM p-tau
Procedure: (see below). […] PI is excluded by living cells, but diffuses into dead cells where it binds nucleic acid and emits fluorescence. FDA/PI differential staining thus provides a quantitative assessment of cellular viability. The blue curves in Fig. 4a,b depict the cellular viability after treatment with 0–0.8 µM of p-tau.
P-tau (without pre-aggregation) and compounds were added together to cells. Cell viability was quantified by FDA and PI differential staining 24 h later. […] Cellular viability was characterized as above and plotted against the compound concentration. Trend lines in panels (a)–(c) were obtained with the dose response curve fitting function of the software Origin (Origin Pro 8, OriginLab Corporation, Northampton, MA, USA). (d) Representative images of apoptotic cells after treatment of p-tau. SH-SY5Y cells were treated with 0.6 µM of p-tau for 12 h before harvesting for annexin V and PI staining. […] The percentage of apoptotic SH-SY5Y cells was quantified by annexin V and PI double staining of cells receiving 12 h of the indicated treatment under each column in the graph. Error bars are standard deviations; n = 3.
SH-SY5Y cells were treated with 0–0.6 µM of p-tau in conjunction with varying doses of nitrazepam, prazepam or devazepide. […] The red dotted lines indicate 50% viability. Curve fitting was done with the dose–response fitting function of the software Origin (version 8, OriginLab Inc.). The number in parentheses represents the concentration (in µM) of the indicated compound.
(§1) Cell viability assays were tested according to reference[60] with modifications. PTAIs were typically added to cells along with (Fig. 4) or after p-tau was added to cells (Fig. 5). For PTAEs, 10 × concentration of p-tau and the test compounds were assembled for pre-aggregation (without heparin or ThS) for 48 h before adding 10 µl to 100 µl of cells in 96-well plates. Twenty-four or 48 h after the addition of protein/compound, cells were trypsinized and transferred to microcentrifuge tubes, and pelleted at 1000 × g for 5 min at room temperature for FDA, PI, annexin V, and ThS staining. For PI/ThS double staining, cell pellets were resuspended in 20 mM Tris, pH7.4 buffer and incubated with 100 µM ThS for 5 min at room temperature. 5-µg/ml propidium iodide was then added to cell suspension for observation under a microscope.
Supplemental Figure 2. […] SH-SY5Y cells were treated with the indicated concentrations p-tau and compounds (in µM) for 20 hours before FDA/PI differential staining and microscopic quantification. […] 0.2 or 0.4 µM of p-tau and 30 µM of each compound were pre-incubated in aggregation reactions for 24 hours before the 20-hr cell treatment and cytotoxicity quantification. FDA and PI dual staining was performed to measure cellular viability. SH-SY5Y cells Compounds in panel (a) were added to cells along with p-tau without pre-incubation.

K18 P301L = system: K18 P301L; parameters: method as in earlier work; conditions: 15 µM K18 P301L, 40 µM heparin; ref Probe Report ML103, National Center for Biotechnology Information, 2010; read-out: AC50 for tau aggregation inhibition; cited from earlier work
[1] = parameters: method as in PMID 29401722; conditions: cited from earlier work
[2] = system: C291S C322S (C/S) and C291A C322A (C/A) mutant p-tau; assay: aggregation of C/S or C/A mutant p-tau (ThS net change); type: biochemical; conditions: increasing doses of compound
Procedure: Figure 3 R-(−)-apomorphine and raloxifene are p-tau aggregation inhibitors (PTAIs) that act independently of the redox state of p-tau. (a) and (b) P-tau aggregation inhibition dose response curves of R-(−)-apomorphine and raloxifene. Aggregation of 6 µM of p-tau was done in the presence of the indicated concentrations of either compound. (c) Both R-(−)-apomorphine and raloxifene act independently of the two cysteine residues of p-tau. P-tau aggregation reactions with the C291S C322S (C/S) mutant p-tau were done in the presence of the indicated amounts of either compound. Shown are net changes of ThS over 16 h.
Many “hits” from prior tau-based HTS were non-selective redox modulators, due most likely to the susceptibility of unmodified tau fibrils to the oxidation of two cysteine residues of tau, C291 and C322. Because p-tau aggregation was not affected by changing the two cysteine residues to alanine or serine, we suspected that R-(−)-apomorphine and raloxifene would act independently of these two cysteine. […] By itself, the C/S p-tau gained 130 units of ThS fluorescence over the course of the aggregation reaction (blue column). With increasing doses of either compound, the net gain of ThS fluorescence decreased progressively. […]

HEK293T cells = assay: intracellular fibril buildup and cell death after p-tau, ThS/PI double staining; type: cell-based; conditions: 15 µM compound added 24 h after p-tau
Procedure: Cells were harvested for ThS/PI staining after additional 24 or 48 h. ThS staining helped visualize intracellular fibrils. In this experiment, we used HEK293T cells to avoid potential interference from the endogenous tau. […] To gain a quantitative assessment, the numbers of the four possible combinations of ThS/PI staining were tallied.
(a) Experimental design. […] These images were from T24hr time point in panel (a) with 0.5 µM p-tau treatment. (c) Quantification of ThS and PI stainability among cells. Cells were categorized based on one of the four ThS/PI double-staining patterns. The total number of cells captured microscopically under each treatment was used as the denominator for the calculation of the proportion of each staining pattern, and expressed in this stacked column chart.
as §1

[3] = parameters: method as in PMID 21071476; conditions: cited from earlier work
3xTg mice = conditions: cited from earlier work
women = conditions: cited from earlier work
[4] = SH-SY5Y, p-tau pre-incubated with compound
[5] = 50 or 200 µM compound, heparin-free

CCC(C)n1ncn(-c2ccc(N3CCN(c4ccc(OCC5COC(Cn6cncn6)(c6ccc(Cl)cc6Cl)O5)cc4)CC3)cc2)c1=O (stereo not shown) [Itraconazole, itraconazole, reference compound]
PTAI>3SD (1N4R p-tau): *
ThS net change (1N4R p-tau): -31
EC50 (p-tau): 10.6 µM
p-tau cytotox (SH-SY5Y cells): No change

O=C1CN=C(c2ccccc2)c2cc(Cl)ccc2N1CC1CC1 [prazepam]
effect on p-tau aggregation (16-h net change of ThS fluorescence) (p-tau): enhanced p-tau aggregation in a dose-dependent manner
effect on p-tau cytotoxicity (cell death curve, LD50) (SH-SY5Y cells; [4]): decreasing LD50

Nc1scc2c(C(=O)O)nn(-c3ccccc3)c(=O)c12 [compound 2]
p-tau aggregation reduced to (p-tau; 400 µM compound): 57%
p-tau aggregation reduced to (p-tau; 1 mM compound): 46%
effect on p-tau aggregation (p-tau; [5]): moderate inhibition
AC50 (K18 P301L): 6.8 ± 0.4 µM

CC(C)/N=c1\cc2n(-c3ccc(Cl)cc3)c3ccccc3nc-2cc1Nc1ccc(Cl)cc1 [Clofazimine, clofazimine, reference compound]
PTAI>3SD (1N4R p-tau): *
ThS net change (1N4R p-tau): -196
EC50 (p-tau): 68 µM
p-tau cytotox (SH-SY5Y cells): No change

COC1=C(OC)C(=O)C(CCCCCCCCCCO)=C(C)C1=O [Idebenone, idebenone]
PTAI>3SD (1N4R p-tau): *
ThS net change (1N4R p-tau): -1
EC50 (p-tau): 10.5 µM
bioavailability [1]: very low bioavailability

CCOC(=O)c1nn(-c2ccccc2)c(=O)c2c(N)scc12 [compound 1]
effect on p-tau aggregation (p-tau; [5]): no effect on p-tau aggregation
AC50 (K18 P301L): 3.3 ± 0.2 µM

O=C1CN=C(c2ccccc2)c2cc([N+](=O)[O-])ccc2N1 [nitrazepam]
effect on p-tau aggregation (16-h net change of ThS fluorescence) (p-tau): did not
effect on p-tau cytotoxicity (cell death curve, LD50) (SH-SY5Y cells; [4]): did not alter the cytotoxicity of p-tau at all

CN1CCc2cccc3c2[C@H]1Cc1ccc(O)c(O)c1-3 [Apomorphine, R-(−)-apomorphine hydrochloride]
EC50 (p-tau): 18.1 µM
aggregation of C/A or C/S mutant p-tau [2]: effectively inhibited
EC50 (SH-SY5Y cells; SH-SY5Y): 2.9 µM
live cells with cytoplasmic ThS fluorescence (HEK293T cells; 48-h samples): 26%
PI (+) ThS (+) cells (HEK293T cells; harvested after additional 24 h): 61%
PI (+) ThS (+) cells (HEK293T cells; harvested after additional 48 h): 44%
blood brain barrier passage [3]: can pass the blood brain barrier
memory in 3xTg mice (3xTg mice): memory improvement

NNc1nncc2ccccc12 [Hydralazine, hydralazine hydrochloride]
EC50 (p-tau): 21.8 µM
p-tau cytotox (SH-SY5Y cells): No change

CN1C(=O)[C@@H](NC(=O)c2cc3ccccc3[nH]2)N=C(c2ccccc2)c2ccccc21 [devazepide]
effect on p-tau aggregation (16-h net change of ThS fluorescence) (p-tau): enhanced p-tau aggregation in a dose-dependent manner
effect on p-tau cytotoxicity (cell death curve, LD50) (SH-SY5Y cells): decreasing LD50

O=C(c1ccc(OCCN2CCCCC2)cc1)c1c(-c2ccc(O)cc2)sc2cc(O)ccc12 [Raloxifene, raloxifene hydrochloride]
EC50 (p-tau): 31.2 µM
effect on p-tau aggregation (p-tau; 50 µM compound): completely blocked p-tau aggregation
aggregation of C/A or C/S mutant p-tau [2]: effectively inhibited
EC50 (SH-SY5Y cells; SH-SY5Y): 4.8 µM
risk of mild cognitive impairment (MCI) (women; 3-year trial, 5386 participants, 120 mg daily): reduced risks of mild cognitive impairment (MCI)
benefit for AD treatment (women; 12-month trial, 42 women with late-onset AD of mild to moderate severity): no significant benefits

COC(=O)C1=C(C)NC(C)=C(C(=O)OCC(C)C)C1c1ccccc1[N+](=O)[O-] (stereo not shown) [Nisoldipine, nisoldipine, reference compound]
PTAI>3SD (1N4R p-tau): *
ThS net change (1N4R p-tau): -29
p-tau cytotox (SH-SY5Y cells): No change

From PMC7539012, “Hyperphosphorylated tau aggregation and cytotoxicity modulators screen identified prescription drugs linked to Alzheimer's disease and cognitive functions” (Scientific Reports, 2020)
